Experiments:
Experiment in all cases: Test B pre-/postemergence plant response
Assay type in all cases: in vivo
[1] = system: downy bromegrass (Bromus tectorum)
How it was run: (§1)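 Greenhouse herbicide screen. Pre- and postemergence (1- to 4-leaf) spray of compound in solvent/surfactant mixture; loam–sand soil for pre, peat/vermiculite medium for post. Visual control rating 0–100 at 13 to 15 days after treatment.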

[2] = system: wheat (Triticum aestivum)
How it was run: as §1

[3] = system: lambsquarters (Chenopodium album)
How it was run: as §1

soybean (Glycine max) = system: soybean (Glycine max)
How it was run: as §1

kochia (Kochia scoparia) = conditions: Postemergence
How it was run: as §1

[4] = system: johnsongrass (Sorghum halepense)
How it was run: as §1

corn (Zea mays) = system: corn (Zea mays)
How it was run: as §1

[5] = system: large crabgrass (Digitaria sanguinalis)
How it was run: as §1

[6] = system: Surinam grass (Brachiaria decumbens)
How it was run: as §1

[7] = system: pigweed (Amaranthus retroflexus)
How it was run: as §1

[8] = system: woolly cupgrass (Eriochloa villosa)
How it was run: as §1

[9] = system: goosegrass (Eleusine indica)
How it was run: as §1

[10] = system: ragweed (common ragweed, Ambrosia elatior)
How it was run: as §1

[11] = system: yellow nutsedge (Cyperus esculentus)
How it was run: as §1

[12] = system: blackgrass (Alopecurus myosuroides)
How it was run: as §1

[13] = system: velvetleaf (Abutilon theophrasti)
How it was run: as §1

wild oat (Avena fatua) = system: wild oat (Avena fatua)
How it was run: as §1

[14] = system: Italian ryegrass (Lolium multiflorum)
How it was run: as §1

[15] = Postemergence, 31 g ai/ha, 0 to 100 scale (0 no effect, 100 complete control)
[16] = Postemergence, 125 g ai/ha, scale 0 to 100 (0 no effect, 100 complete control)
[17] = Postemergence, 250 g ai/ha, scale 0 to 100 (0 no effect, 100 complete control), 13 to 15 days
[18] = Postemergence, 62 g ai/ha, scale 0 to 100 (0 no effect, 100 complete control)
[19] = Preemergence, 31 g ai/ha, scale 0 to 100 (0 no effect, 100 complete control)
[20] = Preemergence, 62 g ai/ha, scale 0 to 100, 0 no effect, 100 complete control
[21] = Preemergence, 125 g ai/ha, scale 0 to 100, 0 no effect, 100 complete control
[22] = Preemergence, 250 g ai/ha, 0 to 100 scale

CCc1cccc(-n2c(-c3ccccc3)ncc(C(=O)C3=C(O)CCCC3=O)c2=O)c1 [Compound 220]
Plant response rating, Bromegrass, Downy [1, 15]: 10 | Plant response rating, Bromegrass, Downy [1, 16]: 15 | Plant response rating, Bromegrass, Downy [1, 17]: 30 | Plant response rating, Bromegrass, Downy [1, 18]: 10 | Plant response rating, Bromegrass, Downy [1, 19]: 0 | Plant response rating, Bromegrass, Downy [1, 20]: 0 | Plant response rating, Bromegrass, Downy [1, 21]: 0 | Bromegrass, Downy plant response rating [1, 22]: 5 | Plant response rating, Wheat [2, 15]: 0 | Plant response rating, Wheat [2, 17]: 15 | Plant response rating, Wheat [2, 18]: 0 | Plant response rating, Wheat [2, 19]: 0 | Plant response rating, Wheat [2, 20]: 0 | Plant response rating, Wheat [2, 21]: 0 | Wheat plant response rating [2, 22]: 5 | Plant response rating, Lambsquarters [3, 15]: 100 | Plant response rating, Lambsquarters [3, 16]: 100 | Plant response rating, Lambsquarters [3, 17]: 100 | Plant response rating, Lambsquarters [3, 18]: 100 | Plant response rating, Lambsquarters [3, 19]: 100 | Plant response rating, Lambsquarters [3, 20]: 100 | Plant response rating, Lambsquarters [3, 21]: 100 | Lambsquarters plant response rating [3, 22]: 100 | Plant response rating, Soybean (soybean (Glycine max); [15]): 80 | Plant response rating, Soybean (soybean (Glycine max); [17]): 100 | Plant response rating, Soybean (soybean (Glycine max); [18]): 85 | Plant response rating, Soybean (soybean (Glycine max); [20]): 0 | Plant response rating, Soybean (soybean (Glycine max); [21]): 0 | Soybean plant response rating (soybean (Glycine max); [22]): 75 | Plant response rating, Kochia (kochia (Kochia scoparia); 31 g ai/ha, 0 to 100 scale (0 no effect, 100 complete control)): 45 | Plant response rating, Kochia (kochia (Kochia scoparia); 125 g ai/ha, scale 0 to 100 (0 no effect, 100 complete control)): 75 | Plant response rating, Kochia (kochia (Kochia scoparia); 250 g ai/ha, scale 0 to 100 (0 no effect, 100 complete control), 13 to 15 days): 100 | Plant response rating, Kochia (kochia (Kochia scoparia); 62 g ai/ha, scale 0 to 100 (0 no effect, 100 complete control)): 65 | Plant response rating, Johnsongrass [4, 15]: 60 | Plant response rating, Johnsongrass [4, 16]: 80 | Plant response rating, Johnsongrass [4, 17]: 90 | Plant response rating, Johnsongrass [4, 18]: 65 | Plant response rating, Johnsongrass [4, 19]: 0 | Plant response rating, Johnsongrass [4, 20]: 0 | Plant response rating, Johnsongrass [4, 21]: 0 | Johnsongrass plant response rating [4, 22]: 80 | Plant response rating, Corn (corn (Zea mays); [15]): 25 | Plant response rating, Corn (corn (Zea mays); [16]): 55 | Plant response rating, Corn (corn (Zea mays); [17]): 75 | Plant response rating, Corn (corn (Zea mays); [18]): 50 | Plant response rating, Corn (corn (Zea mays); [19]): 0 | Plant response rating, Corn (corn (Zea mays); [20]): 0 | Plant response rating, Corn (corn (Zea mays); [21]): 0 | Corn plant response rating (corn (Zea mays); [22]): 0 | Plant response rating, Crabgrass, Large [5, 15]: 70 | Plant response rating, Crabgrass, Large [5, 16]: 85 | Plant response rating, Crabgrass, Large [5, 17]: 90 | Plant response rating, Crabgrass, Large [5, 18]: 75 | Plant response rating, Crabgrass, Large [5, 19]: 0 | Plant response rating, Crabgrass, Large [5, 20]: 75 | Plant response rating, Crabgrass, Large [5, 21]: 80 | Crabgrass, Large plant response rating [5, 22]: 100 | Plant response rating, Surinam Grass [6, 15]: 50 | Plant response rating, Surinam Grass [6, 17]: 75 | Plant response rating, Surinam Grass [6, 18]: 60 | Plant response rating, Surinam Grass [6, 19]: 10 | Plant response rating, Surinam Grass [6, 20]: 20 | Plant response rating, Surinam Grass [6, 21]: 45 | Surinam Grass plant response rating [6, 22]: 65 | Plant response rating, Pigweed [7, 15]: 95 | Plant response rating, Pigweed [7, 17]: 100 | Plant response rating, Pigweed [7, 18]: 100 | Plant response rating, Pigweed [7, 19]: 100 | Plant response rating, Pigweed [7, 20]: 100 | Plant response rating, Pigweed [7, 21]: 100 | Pigweed plant response rating [7, 22]: 100 | Plant response rating, Cupgrass, Woolly [8, 15]: 60 | Plant response rating, Cupgrass, Woolly [8, 16]: 65 | Plant response rating, Cupgrass, Woolly [8, 17]: 65 | Plant response rating, Cupgrass, Woolly [8, 18]: 60 | Plant response rating, Cupgrass, Woolly [8, 19]: 0 | Plant response rating, Cupgrass, Woolly [8, 20]: 0 | Plant response rating, Cupgrass, Woolly [8, 21]: 10 | Cupgrass, Woolly plant response rating [8, 22]: 25 | Plant response rating, Goosegrass [9, 15]: 80 | Plant response rating, Goosegrass [9, 16]: 85 | Plant response rating, Goosegrass [9, 17]: 90 | Plant response rating, Goosegrass [9, 18]: 85 | Plant response rating, Goosegrass [9, 19]: 65 | Plant response rating, Goosegrass [9, 20]: 95 | Plant response rating, Goosegrass [9, 21]: 98 | Goosegrass plant response rating [9, 22]: 100 | Plant response rating, Ragweed [10, 15]: 90 | Plant response rating, Ragweed [10, 17]: 98 | Plant response rating, Ragweed [10, 18]: 95 | Plant response rating, Ragweed [10, 19]: 15 | Plant response rating, Ragweed [10, 20]: 60 | Plant response rating, Ragweed [10, 21]: 80 | Ragweed plant response rating [10, 22]: 95 | Plant response rating, Nutsedge, Yellow [11, 15]: 10 | Plant response rating, Nutsedge, Yellow [11, 16]: 25 | Plant response rating, Nutsedge, Yellow [11, 17]: 55 | Plant response rating, Nutsedge, Yellow [11, 18]: 25 | Plant response rating, Nutsedge, Yellow [11, 19]: 0 | Plant response rating, Nutsedge, Yellow [11, 20]: 0 | Plant response rating, Nutsedge, Yellow [11, 21]: 60 | Nutsedge, Yellow plant response rating [11, 22]: 90 | Plant response rating, Blackgrass [12, 15]: 10 | Plant response rating, Blackgrass [12, 16]: 30 | Plant response rating, Blackgrass [12, 17]: 40 | Plant response rating, Blackgrass [12, 18]: 20 | Plant response rating, Blackgrass [12, 19]: 10 | Plant response rating, Blackgrass [12, 20]: 20 | Plant response rating, Blackgrass [12, 21]: 20 | Blackgrass plant response rating [12, 22]: 35 | Plant response rating, Velvetleaf [13, 15]: 80 | Plant response rating, Velvetleaf [13, 17]: 100 | Plant response rating, Velvetleaf [13, 18]: 90 | Plant response rating, Velvetleaf [13, 19]: 45 | Plant response rating, Velvetleaf [13, 20]: 70 | Plant response rating, Velvetleaf [13, 21]: 90 | Velvetleaf plant response rating [13, 22]: 100 | Plant response rating, Oat, Wild (wild oat (Avena fatua); [15]): 10 | Plant response rating, Oat, Wild (wild oat (Avena fatua); [17]): 50 | Plant response rating, Oat, Wild (wild oat (Avena fatua); [18]): 20 | Plant response rating, Oat, Wild (wild oat (Avena fatua); [20]): 0 | Plant response rating, Oat, Wild (wild oat (Avena fatua); [21]): 0 | Oat, Wild plant response rating (wild oat (Avena fatua); [22]): 60 | Plant response rating, Ryegrass, Italian [14, 15]: 5 | Plant response rating, Ryegrass, Italian [14, 17]: 60 | Plant response rating, Ryegrass, Italian [14, 18]: 5 | Plant response rating, Ryegrass, Italian [14, 19]: 0 | Plant response rating, Ryegrass, Italian [14, 20]: 0 | Plant response rating, Ryegrass, Italian [14, 21]: 0 | Ryegrass, Italian plant response rating [14, 22]: 0
